Values of other authors in US7981605B2, “Epidermal growth factor receptor mutations” (Amgen Inc., priority 2005, dated 2011).

Legend:
[1] = tested on: NSCLC tumors with EGFr mutations; details: deletions in amino acids 746-759 region, L858R, L861Q, G719C, G719S, R776C/L858R (Lynch, Paez, Pao 2004)
A431 tumor xenografts = details: athymic mice

Row | Compound | sensitivity of NSCLC tumors with EGFr mutations [1] | formation of A431 xenografts (A431 tumor xenografts)
1 | C#Cc1cccc(Nc2ncnc3cc(OCCOC)c(OCCOC)cc23)c1 [erlotinib, N-(3-ethynylphenyl)-6,7-bis(2-methoxyethoxy)-4-quinazolinamine] | display sensitivity | 
2 | panitumumab: a human IgG2 monoclonal antibody against human EGFr; human anti-EGFr antibody (Amgen) |  | preventing the formation of human epidermoid carcinoma A431 xenografts
